From patent US8207156B2, “Substituted pyrazoline compounds, their preparation and use as medicaments” (Laboratorios Del Dr. Esteve, S.A., priority 2005, dated 2012)
pIC50: −log10 of the molar value.

Legend:
CB1 receptor [1] = target: T1, CB1 receptor (UniProt P20272); test: In-vitro determination of affinity to CB1/CB2-receptors (radioligand [3H]-CP55940 binding); details: for Inhibition [%], 10^−7 M: compound at 10^−7 M; for Inhibition [%], 10^−8 M: compound at 10^−8 M
T1 construct: other: compound at 10^−7 M; radioligand [3H]-CP55940; other: compound at 10^−8 M
Experimental: (§1) The in-vitro determination of the affinity of the inventive substituted pyrazoline compounds to CB1/CB2-Rezeptors is carried out as described in the publication of Ruth A. Ross, Heather C. Brockie et al., “Agonist-inverse agonist characterization at CB1 and CB2 cannabinoid receptors of L-759633, L759656 and AM630”, British Journal of Pharmacology, 126, 665-672, (1999), whereby the transfected human CB1 and CB2 receptors of Receptor Biology, Inc. are used. The radioligand used for both receptors is [^3H]-CP55940. The respective parts of the description is hereby incorporated by reference and forms part of the present disclosure.
(§2) Binding affinity to CB1 receptor was evaluated according to a modification of the method described by Govaerts et al., Eur J Pharmac Sci 23, 233-243 (2004). The respective parts of the description is hereby incorporated by reference and forms part of the present disclosure.
(§3) Briefly, cerebellum from male wistar rats (250-300 g) were carefully dissected on ice and homogenates were prepared with Potter-Helveheim in a cold 50 mM Tris-HCl solution containing 5 mM MgCl2, 1 mM EDTA and 0.25 M sucrose, pH 7.4. The suspension was centrifuged at 1,000×g for 5 minutes. The supernatants were collected and centrifuged 50,000×g for 15 minutes. The resulting pellets were then resuspended in Tris-HCl buffer without sucrose, homogenized and incubated for 15 min at 37° C. in an orbital shaker bath and centrifuged again at 50,000×g for 15 min. Pellets were weighted, resuspended in Tris-HCl buffer without sucrose, homogenized with Ultraturrax at 13,500 rpm for 3×5 seconds and alicuoted in 0.9 ml volumes in Eppendorf tubes. Alicuotes were centrifuged at 20,800×g for 5 minutes, supernatants discarded and pellets were frozen at −80° C. until use. Total protein concentration was determined using the Bio-Rad Lowry method based kit. Competitive binding experiments were performed in presence of 1 nM [^3H]-CP 55,940 in siliconized glass tubes containing 100 μg protein/tube resuspended in 1 ml final volume of 50 mM Tris-HCl, 5 mM MgCl2, 1 mM EDTA, 0.5% (w/v) bovine serum albumin, pH 7.4. Compounds were present at various concentrations and the non specific binding was determined in the presence of 10 μM HU-210. After 1 hour incubation at 30° C., the suspension was rapidly filtered through 0.5% PEI pre-treated GF/B fiber filters on a 96-well harvester and washed 3 times with 3 ml ice-cold binding buffer without bovine serum albumin. Radioactivity on filters was measured with Wallac Winspectral 1414 counter by liquid scintillation in 6 ml Ecoscint H (National Diagnostics, U.K.). Assays were made in triplicates.
(§4) Binding data were analyzed by non-linear regression with the software GraphPad Prism Version 3.03.

CB1 receptor [2] = target: T2, CB1 receptor; test: as above; details: binding data per pharmacological methods part I, table does not say whether human transfected receptor or rat cerebellum
T2 construct: IC50 [nM]; radioligand [3H]-CP55940
Experimental: as §1, §2, §3, §4

In the case of `Cl.O=C(NN1CC2CCCC2C1)C1=NN(c2ccc(Cl)cc2Cl)C(c2ccc(F)cc2)C1` (stereo not drawn) [Example 91A, 1-(2,4-Dichloro-phenyl)-5-(4-fluoro-phenyl)-4,5-dihydro-1H-pyrazole-3-carboxylic acid (hexahydro-cyclopenta[c]pyrrol-2-yl)-amide], the “Inhibition [%], 10^−7 M” value (CB1 receptor [1]) was 75.3%, the “Inhibition [%], 10^−8 M” value (CB1 receptor [1]) was 34.9% and the pIC50 (CB1 receptor [2]) was 7.08.

In the case of `O=C(NN1CCCCCC1)C1=NN(c2ccc(Cl)cc2Cl)C(c2ccc(F)cc2)C1` (stereo not drawn) [Example 96, 1-(2,4-Dichloro-phenyl)-5-(4-fluoro-phenyl)-4,5-dihydro-1H-pyrazole-3-carboxylic acid azepan-1-ylamide], the “Inhibition [%], 10^−7 M” value (CB1 receptor [1]) was 74.8%, the “Inhibition [%], 10^−8 M” value (CB1 receptor [1]) was 43.3% and the pIC50 (CB1 receptor [2]) was 7.25.

In the case of `O=C(NN1CCCCC1)C1=NN(c2ccc(Cl)cc2Cl)C(c2ccc(Br)cc2)C1` (stereo not drawn) [Example 60A, 5-(4-Bromo-phenyl)-1-(2,4-dichloro-phenyl)-4,5-dihydro-1H-pyrazole-3-carboxylic acid piperidin-1-ylamide], the “Inhibition [%], 10^−7 M” value (CB1 receptor [1]) was 65.8%, the “Inhibition [%], 10^−8 M” value (CB1 receptor [1]) was 33.3% and the pIC50 (CB1 receptor [2]) was 7.36.

With `O=C(N[C@@H]1CCCC[C@H]1OCc1ccccc1)C1=NN(c2ccc(Cl)cc2Cl)C(c2ccc(Cl)cc2)C1` (stereo partly drawn) [Example 178, N-((1R,2R)-2-(benzyloxy)cyclohexyl)-5-(4-chlorophenyl)-1-(2,4-dichlorophenyl)-4,5-dihydro-1H-pyrazole-3-carboxamide] the “Inhibition [%], 10^−7 M” value (CB1 receptor [1]) was 58%, the “Inhibition [%], 10^−8 M” value (CB1 receptor [1]) was 41.2% and the pIC50 (CB1 receptor [2]) was 6.92.

With `O=C(NC1CCCCCC1)C1=NN(c2ccc(Cl)cc2Cl)C(c2ccc(F)cc2)C1` (stereo not drawn) [Example 131, 5-(4-Fluorophenyl)-1-(2,4-dichloro-phenyl)-4,5-dihydro-1H-pyrazole-3-carboxylic acid cycloheptylamide] the “Inhibition [%], 10^−7 M” value (CB1 receptor [1]) was 70.2%, the “Inhibition [%], 10^−8 M” value (CB1 receptor [1]) was 42.9% and the pIC50 (CB1 receptor [2]) was 6.94.

`COc1ccc(C2CC(C(=O)NN3CCCCCC3)=NN2c2ccc(Cl)cc2Cl)cc1` (stereo not drawn) [Example 114A, 1-(2,4-Dichloro-phenyl)-5-(4-methoxy-phenyl)-4,5-dihydro-1H-pyrazole-3-carboxylic acid azepan-1-ylamide] was tested, and the “Inhibition [%], 10^−7 M” value (CB1 receptor [1]) was 79.3%, the “Inhibition [%], 10^−8 M” value (CB1 receptor [1]) was 41.4% and the pIC50 (CB1 receptor [2]) was 7.74.

`O=C(N[C@H]1CCCC[C@@H]1OCc1ccccc1)C1=NN(c2ccc(Cl)cc2Cl)C(c2ccc(Cl)cc2)C1` (stereo partly drawn) [Example 151, N-((1S,2S)-2-(benzyloxy)cyclohexyl)-5-(4-chlorophenyl)-1-(2,4-dichlorophenyl)-4,5-dihydro-1H-pyrazole-3-carboxamide] was tested, and the “Inhibition [%], 10^−7 M” value (CB1 receptor [1]) was 82.3%, the “Inhibition [%], 10^−8 M” value (CB1 receptor [1]) was 67.5% and the pIC50 (CB1 receptor [2]) was 7.49.

In the case of `COc1ccc(C2CC(C(=O)NN3CCCCC3)=NN2c2ccc(Cl)cc2Cl)cc1.Cl` (stereo not drawn) [Example 106, 1-(2,4-Dichloro-phenyl)-5-(4-methoxy-phenyl)-4,5-dihydro-1H-pyrazole-3-carboxylic acid piperidin-1-ylamide hydrochloride], the “Inhibition [%], 10^−7 M” value (CB1 receptor [1]) was 76.1%, the “Inhibition [%], 10^−8 M” value (CB1 receptor [1]) was 23.4% and the pIC50 (CB1 receptor [2]; hydrochloride) was 7.49.

For `O=C(NC1CCCCCC1)C1=NN(c2ccc(Cl)cc2Cl)C(c2ccc(Br)cc2)C1` (stereo not drawn) [Example 130, 5-(4-Bromo-phenyl)-1-(2,4-dichloro-phenyl)-4,5-dihydro-1H-pyrazole-3-carboxylic acid cycloheptylamide], the “Inhibition [%], 10^−7 M” value (CB1 receptor [1]) was 67.7%, the “Inhibition [%], 10^−8 M” value (CB1 receptor [1]) was 33.1% and the pIC50 (CB1 receptor [2]) was 7.28.

With `COc1ccc(C2CC(C(=O)NN3CCc4ccccc43)=NN2c2ccc(Cl)cc2Cl)cc1.Cl` (stereo not drawn) [Example 112, 1-(2,4-Dichloro-phenyl)-5-(4-methoxy-phenyl)-4,5-dihydro-1H-pyrazole-3-carboxylic acid (2,3-dihydro-indol-1-yl)-amide hydrochloride] the “Inhibition [%], 10^−7 M” value (CB1 receptor [1]) was 61.8%, the “Inhibition [%], 10^−8 M” value (CB1 receptor [1]) was 46.3% and the pIC50 (CB1 receptor [2]) was 6.97.

In the case of `COc1ccc(C2CC(C(=O)NN3CC4CCCC4C3)=NN2c2ccc(Cl)cc2Cl)cc1.Cl` (stereo not drawn) [Example 109A, 1-(2,4-Dichloro-phenyl)-5-(4-methoxy-phenyl)-4,5-dihydro-1H-pyrazole-3-carboxylic acid (hexahydro-cyclopenta[c]pyrrol-2-yl)-amide], the “Inhibition [%], 10^−7 M” value (CB1 receptor [1]) was 74.2%, the “Inhibition [%], 10^−8 M” value (CB1 receptor [1]) was 33.5% and the pIC50 (CB1 receptor [2]) was 7.82.

For `O=C(NN1CCCCCCC1)C1=NN(c2ccc(Cl)cc2Cl)C(c2ccc(Br)cc2)C1` (stereo not drawn) [Example 146, 5-(4-bromo-phenyl)-1-(2,4-dichloro-phenyl)-4,5-dihydro-1H-pyrazole-3-carboxylic acid azocan-1-ylamide], the “Inhibition [%], 10^−7 M” value (CB1 receptor [1]) was 71.8%, the “Inhibition [%], 10^−8 M” value (CB1 receptor [1]) was 35.2% and the pIC50 (CB1 receptor [2]) was 7.92.

In the case of `COc1ccc(C2CC(C(=O)NN3CC4CCCC4C3)=NN2c2ccc(Cl)cc2Cl)cc1.Cl` (stereo not drawn) [Example 109, 1-(2,4-Dichloro-phenyl)-5-(4-methoxy-phenyl)-4,5-dihydro-1H-pyrazole-3-carboxylic acid (hexahydro-cyclopenta[c]pyrrol-2-yl)-amide hydrochloride], the “Inhibition [%], 10^−7 M” value (CB1 receptor [1]; hydrochloride) was 80.6%, the “Inhibition [%], 10^−8 M” value (CB1 receptor [1]; hydrochloride) was 44% and the pIC50 (CB1 receptor [2]; hydrochloride) was 7.80.

`Cl.O=C(NN1CCCCC1)C1=NN(c2ccc(Cl)cc2Cl)C(c2ccc(F)cc2)C1` (stereo not drawn) [Example 135, 1-(2,4-Dichloro-phenyl)-5-(4-fluoro-phenyl)-4,5-dihydro-1H-pyrazole-3-carboxylic acid piperidin-1-ylamide hydrochloride] was tested, and the “Inhibition [%], 10^−7 M” value (CB1 receptor [1]) was 78.5%, the “Inhibition [%], 10^−8 M” value (CB1 receptor [1]) was 40.2% and the pIC50 (CB1 receptor [2]; hydrochloride) was 7.08.

With `Cl.O=C(NN1CCc2ccccc21)C1=NN(c2ccc(Cl)cc2Cl)[C@@H](c2ccc(Cl)cc2)C1` [Example 181, (R)-5-(4-Chloro-phenyl)-1-(2,4-dichloro-phenyl)-4,5-dihydro-1H-pyrazole-3-carboxylic acid (2,3-dihydro-indol-1-yl)-amide hydrochloride] the “Inhibition [%], 10^−7 M” value (CB1 receptor [1]) was 50.6%, the “Inhibition [%], 10^−8 M” value (CB1 receptor [1]) was 33.7% and the pIC50 (CB1 receptor [2]; hydrochloride) was 7.62.

With `Cl.O=C(NN1CC2CCCC2C1)C1=NN(c2ccc(Cl)cc2Cl)C(c2ccc(F)cc2)C1` (stereo not drawn) [Example 91, 1-(2,4-Dichloro-phenyl)-5-(4-fluoro-phenyl)-4,5-dihydro-1H-pyrazole-3-carboxylic acid (hexahydro-cyclopenta[c]pyrrol-2-yl)-amide hydrochloride] the “Inhibition [%], 10^−7 M” value (CB1 receptor [1]; hydrochloride) was 79.1%, the “Inhibition [%], 10^−8 M” value (CB1 receptor [1]; hydrochloride) was 43% and the pIC50 (CB1 receptor [2]; hydrochloride) was 7.33.

For `O=C(N[N+]1([O-])CCCCC1)C1=NN(c2ccc(Cl)cc2Cl)C(c2ccc(Cl)cc2)C1` (stereo not drawn) [Example 7, N-oxide of 5-(4-Chloro-phenyl)-1-(2,4-dichloro-phenyl)-4,5-dihydro-1H-pyrazole-3-carboxylic acid piperidin-1-ylamide], the “Inhibition [%], 10^−7 M” value (CB1 receptor [1]) was 71.2%, the “Inhibition [%], 10^−8 M” value (CB1 receptor [1]) was −12.8% and the pIC50 (CB1 receptor [2]) was 6.84.

`O=C(NN1CCCCCCC1)C1=NN(c2ccc(Cl)cc2Cl)C(c2ccc(F)cc2)C1` (stereo not drawn) [Example 147, 5-(4-fluoro-phenyl)-1-(2,4-dichloro-phenyl)-4,5-dihydro-1H-pyrazole-3-carboxylic acid azocan-1-ylamide] was tested, and the “Inhibition [%], 10^−7 M” value (CB1 receptor [1]) was 63.4%, the “Inhibition [%], 10^−8 M” value (CB1 receptor [1]) was 24.0% and the pIC50 (CB1 receptor [2]) was 7.27.

`CCCNC(=O)C1=NN(c2ccc(Cl)cc2Cl)C(c2ccc(Cl)cc2)C1` (stereo not drawn) [Example 69, 5-(4-Chloro-phenyl)-1-(2,4-dichloro-phenyl)-4,5-dihydro-1H-pyrazole-3-carboxylic acid propylamide] was tested, and the pIC50 (CB1 receptor [2]) was 6.45.

`CC(C)(C)C1CCC(NC(=O)C2=NN(c3ccc(Cl)cc3Cl)C(c3ccc(Cl)cc3)C2)CC1` (stereo not drawn) [Example 31, 5-(4-Chloro-phenyl)-1-(2,4-dichloro-phenyl)-4,5-dihydro-1H-pyrazole-3-carboxylic acid (4-tert-butyl-cyclohexyl)-amide] was tested, and the pIC50 (CB1 receptor [2]) was < 6.00.

In the case of `CCCCN(NC(=O)C1=NN(c2ccc(Cl)cc2Cl)C(c2ccc(Cl)cc2)C1)c1ccccc1` (stereo not drawn) [Example 29, 5-(4-Chloro-phenyl)-1-(2,4-dichloro-phenyl)-4,5-dihydro-1H-pyrazole-3-carboxylic acid N′-butyl-N′-phenyl-hydrazide], the pIC50 (CB1 receptor [2]) was < 6.00.
